Experimental data as given in patent US9636345B2, “Benzimidazole derivatives useful TRPM8 channel modulators” (Janssen Pharmaceutica NV, priority 2009, dated 2017).
Counter-ions that a name gives are not always drawn. Like-named read-outs stand apart in the source and are kept apart here.

Tests used:
canine TRPM8 = molecular target: T1, canine TRPM8 (Canis lupus familiaris, UniProt Q1A7N1); assay: In vitro canine TRPM8 functional assay (icilin-induced intracellular Ca2+ increase, FLIPR/FDSS); format: cell-based; settings: for inhibition at 0.2 µM / % Inh @ 0.2 μM: 0.2 μM compound, HEK293 canine TRPM8, Table 6; for % Inh @ 1 μM: 1 μM compound, samples diluted from 10 mM stock with 100% DMSO
T1 construct: expressed in transfected cells
T1 sequence (Q1A7N1 1-1104): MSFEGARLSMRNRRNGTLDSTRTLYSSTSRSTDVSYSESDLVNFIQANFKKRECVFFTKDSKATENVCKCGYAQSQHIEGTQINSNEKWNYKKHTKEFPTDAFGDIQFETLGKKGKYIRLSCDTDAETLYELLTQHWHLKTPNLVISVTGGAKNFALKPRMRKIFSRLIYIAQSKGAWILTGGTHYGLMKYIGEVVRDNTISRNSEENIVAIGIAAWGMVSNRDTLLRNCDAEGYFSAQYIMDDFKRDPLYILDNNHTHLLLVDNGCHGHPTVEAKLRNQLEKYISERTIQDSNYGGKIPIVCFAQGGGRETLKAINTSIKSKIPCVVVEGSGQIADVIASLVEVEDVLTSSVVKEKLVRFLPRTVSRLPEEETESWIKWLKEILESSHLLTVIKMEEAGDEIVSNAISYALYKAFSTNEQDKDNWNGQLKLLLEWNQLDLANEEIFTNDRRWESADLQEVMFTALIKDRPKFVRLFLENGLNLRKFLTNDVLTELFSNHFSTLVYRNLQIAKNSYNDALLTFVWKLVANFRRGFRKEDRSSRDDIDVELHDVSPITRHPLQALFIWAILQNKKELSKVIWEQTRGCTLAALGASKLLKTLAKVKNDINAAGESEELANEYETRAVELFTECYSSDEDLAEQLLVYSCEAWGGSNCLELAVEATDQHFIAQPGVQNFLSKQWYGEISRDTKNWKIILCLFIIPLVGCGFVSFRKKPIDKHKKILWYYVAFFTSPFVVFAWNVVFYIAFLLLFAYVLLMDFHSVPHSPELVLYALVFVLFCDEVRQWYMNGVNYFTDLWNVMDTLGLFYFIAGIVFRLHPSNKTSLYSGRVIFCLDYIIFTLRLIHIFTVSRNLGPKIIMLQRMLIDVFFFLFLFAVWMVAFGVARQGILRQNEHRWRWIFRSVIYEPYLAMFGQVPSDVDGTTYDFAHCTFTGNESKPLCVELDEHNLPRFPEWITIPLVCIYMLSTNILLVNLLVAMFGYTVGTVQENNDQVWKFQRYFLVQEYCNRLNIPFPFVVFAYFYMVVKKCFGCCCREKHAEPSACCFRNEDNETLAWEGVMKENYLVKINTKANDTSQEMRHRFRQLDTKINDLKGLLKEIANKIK
Procedure: The functional activity of representative compounds of the formula (I) of the present invention was quantified by measuring changes in intracellular calcium concentration using a Ca^2+-sensitive fluorescent dye. The changes in fluorescent signal were monitored by a fluorescence plate reader, either a FLIPR™ (Molecular Devices) or FDSS (Hamamatsu).
HEK293 cells stably expressing canine TRPM8 were routinely grown as monolayers in Dulbecco's minimum essential medium supplemented with 10% FBS, 2 mM L-glutamine, 100 units/mL penicillin, 100 ug/mL streptomycin and 400 μg/mL G418. Cells were maintained in 5% CO2 at 37° C. At 24 hr prior to assay, cells were seeded in black wall, clear-base poly-D-lysine coated 384-well plates (BD Biosciences, N.J., USA) at a density of 5,000 cells per well in culture medium and grown overnight in 5% CO2 at 37° C. On assay day, growth media was removed, and cells were loaded with Calcium 3 Dye (Molecular Devices) for 35 min at 37° C., under 5% CO2 and then incubated for 25 min at room temperature and atmosphere. Subsequently, cells were tested for agonist-induced increases in intracellular Ca^2+ levels using FLIPR™ or FDSS. Cells were treated with compounds of the formula (I) at varying concentrations and intracellular Ca^2+ was measured for 5 min prior to the addition of icilin to all wells to achieve a final concentration that produces approximately an 80% maximal response.
Basal FI was subtracted prior to normalizing data to percent of maximal response. Curves were generated using the average of quadruplicate wells for each data point using nonlinear regression of either sigmoidal dose response or sigmoidal dose response (variable slope). Finally, the EC50 and IC50 values were calculated with the best-fit curve determined by GraphPad Prism
Test samples were prepared by diluting a 10 mM stock solution of test compound with 100% DMSO prior to addition to assay buffer.

Male Sprague Dawley rats = assay: Inhibition of icilin-induced "wet-dog" shakes in rats; format: in vivo; settings: rat; 10 mg/kg p.o.; 60 min pre-icilin; vehicle 0.5% HPMC
Procedure: Male Sprague Dawley rats ([…], Charles River Labs, n=6-9/treatment) were used to evaluate the ability of test compounds to block icilin-induced “wet-dog” shakes (WDS). The test compound was administered at 10 mg/kg in an appropriate vehicle, such as hydroxypropyl-β-cyclodextrin (HP-β-CD), methocellulose, 10% Solutol, H2O or the like, by the appropriate route (e.g., i.p or p.o), 30-60 min before icilin. Icilin was then administered in PEG-400 or 10% solutol/H2O, at 1.0 or 3.0 mg/kg, i.p. and spontaneous “wet-dog” shakes were counted 10-20 min post-icilin.
A representative compound of the present invention was tested at 10 mg/kg p.o. and 60 min pre-icilin, according to the procedure described above. Results, as listed in Table 8 below, are presented as a percent inhibition of shakes, which was calculated as [1−(test compound WDS count/vehicle WDS count)]×100.

| Structure (SMILES) | % Inh @ 0.2 μM (canine TRPM8) [%] | other results |
| --- | --- | --- |
| CCn1c(=NS(=O)(=O)c2ccccc2)n(Cc2ccc(C(F)(F)F)c(F)c2)c2cc(C(F)(F)F)ccc21 [Compound 37] | – | IC50 (canine TRPM8): 5 nM; inhibition at 0.2 µM (canine TRPM8): 93%; % Inhibition of icilin-induced "wet-dog" shakes (Male Sprague Dawley rats): 0.6% |
| Cc1ccc2c(c1)n(C)c(=NS(=O)(=O)c1ccccc1)n2Cc1ccc(OC(F)(F)F)cc1 [Compound 54] | 6 | % Inh @ 1 μM (canine TRPM8; re-test, Table 7): 55%; IC50 (canine TRPM8; re-test, samples diluted from 10 mM stock with 100% DMSO before addition to assay buffer, Table 7, read-out: IC50): 645 nM |
| Cc1ccc2c(c1)n(C)/c(=N/S(=O)(=O)c1ccccc1)n2Cc1ccc(C(F)(F)F)c(F)c1 [Compound 55, N-[1-(3-Fluoro-4-trifluoromethyl-benzyl)-3,5-dimethyl-1,3-dihydro-benzimidazol-2-ylidene]-benzene sulfonamide] | – | inhibition at 0.2 µM (canine TRPM8): 18% |
| Cc1ccc2c(c1)n(C)c(=NS(=O)(=O)c1ccccc1)n2Cc1ccc(C(F)(F)F)cc1 [Compound 56] | 1 | % Inh @ 1 μM (canine TRPM8; re-test, Table 7): 40% |
| Cn1c(=NS(=O)(=O)c2ccccc2)n(Cc2ccc(OC(F)(F)F)cc2)c2ccc(C(F)(F)F)cc21 [Compound 58] | 25 | – |
| Cn1c(=NS(=O)(=O)c2ccccc2)n(Cc2ccc(C(F)(F)F)cc2)c2ccc(C(F)(F)F)cc21 [Compound 59] | 20 | – |
| O=S(=O)(/N=c1\n(Cc2ccc(C(F)(F)F)cc2)c2cccc3c2n1CCO3)c1ccccc1 [Compound 63, N-[1-(4-Trifluoromethyl-benzyl)-3,4-dihydro-1H-5-oxa-1,2a-diaza-acenaphthylen-2-ylidene]-benzenesulfonamide TFA salt] | – | inhibition at 0.2 µM (canine TRPM8): 34% |
| O=S(=O)(N=c1n2c3c(cccc3n1-c1ccc(OC(F)(F)F)cc1)OCC2)c1ccccc1 [Compound 64] | 61 | – |

Second part, led by results:

| % Inh @ 0.2 μM (canine TRPM8) [%] | Structure (SMILES) | other results |
| --- | --- | --- |
| 45 | Cn1c(=NS(=O)(=O)c2ccccc2)n(Cc2ccc(C(F)(F)F)c(F)c2)c2ccc(C(F)(F)F)cc21 [Compound 57] | – |
| 5 | Cc1cc2c(cc1C)n(Cc1ccc(OC(F)(F)F)cc1)c(=NS(=O)(=O)c1ccccc1)n2C [Compound 60] | % Inh @ 1 μM (canine TRPM8; re-test, Table 7): 48% |
| 14 | Cc1cc2c(cc1C)n(Cc1ccc(C(F)(F)F)c(F)c1)c(=NS(=O)(=O)c1ccccc1)n2C [Compound 61] | – |
| 19 | Cc1cccc2c1n(Cc1ccc(C(F)(F)F)c(F)c1)c(=NS(=O)(=O)c1ccccc1)n2C [Compound 62] | – |
